This note sets out measurements from patent US11642322B2, “Food supplement and composition comprising choline butyrate salt and/or butyrylcholine” (A[…], priority 2016, dated 2023).

Like-named read-outs stand apart in the source and are kept apart here.

The conditions of data set [1]: 1100 mg per kilogram feed, first day of life till day 39.
Excerpt: 396 days old ROSS® 308 meat chickens were used for this test. The test lasted from the first day of life of the chickens till day 39. […] The uncertainty of the measurement value is lower than 0.05.
(§1) The design of the test was for the rest similar to the one described above.
In data set [2] the test system is villi. The conditions noted are these: 1100 mg per kilogram feed; for average length of the villi: 5 chickens.
Description: 20 days old ROSS® 308 meat chickens were used for this test. The test lasted from the first day of life of the chickens till day 39. […] The average length of the villi of 5 chickens was measured for each group after 14 days. […] The average length of the villi of 5 chickens was measured for each group after 39 days. […] The uncertainty of the measurement value is lower than 0.05.
as §1
For data set [3], the system named is CD3+ T-cells.
Description: 20 days old ROSS® 308 meat chickens were used for this test. The test lasted from the first day of life of the chickens till day 14. […] On day 14, the average amount of CD3+ T-cells was determined for both groups.
The test system of data set [4] is coccidiose. The experiment in a line: Influence on Coccidiose infection (chickens in a shed infected with coccidiose). The conditions noted are these: 1100 mg per kilogram feed, till day 39.
Excerpt: 496 days old ROSS® 308 meat chickens were used for this test and were placed in a shed that was infected with coccidiose. The test lasted from the first day of life of the chickens till day 39. […] The uncertainty of the measurement value is lower than 0.05.

For `CCCC(=O)OCC[N+](C)(C)C` [butyrylcholine, (N,N,N-trimethyl)-2-ammoniumethylbutanoate], the “decrease of the FCR value with respect to the control group” value in data set [1] worked out at 5%. Further, the “increase of the length of the villi compared to the control group” value in data set [2] (after 39 days) was found to be 21%. The “change of the surface percentage for CD3+ compared to the control group (in words)” value in data set [3] (similar design, added to the feed) is listed as “increase”.

For `CCCC(=O)[O-].C[N+](C)(C)CCO` [choline butyrate], the “decrease of the FCR value with respect to the control group” value in data set [1] is 5%. In addition, the FCR value in data set [1] (test group) came to 1.57; in data set [4] (test group), 2.22. Also, the entries for the “increase of the length of the villi compared to the control group” value in data set [2] (after 14 days) and in data set [2] (after 39 days) were 7% and 21%, respectively. Also, the “average length of the villi” value in data set [2] (after 14 days) was 779 μm; in data set [2] (after 39 days) it was 1231 μm. Moreover, the “increase of the surface percentage for CD3+ versus control group” value in data set [3] (day 14, 1100 mg per kilogram feed) was 27%. Besides, the “surface percentage for CD3+” value in data set [3] (day 14, test group, 1100 mg per kilogram feed) is given as 23 surface percentage. For the same compound, the “animals that died, supplemented group versus control” value in data set [4] is listed as “more animals died”. Further, the “decrease of the FCR value versus control group” value in data set [4] is 13%.
